The source of these data is paper PMC7659976, “Benzobicyclo[3.2.1]octene Derivatives as a New Class of Cholinesterase Inhibitors” (Molecules, 2020).

Like-named read-outs stand apart in the source and are kept apart here.

Test [1] addresses BChE derived from purified human plasma (Homo sapiens, UniProt P06276). The test can be described thus: biochemical. The note with it: 0.1 M phosphate buffer pH 7.4, 25 °C, ATCh substrate.
Test [2] concerns the target recombinant human AChE (Homo sapiens, UniProt P22303). In words: biochemical. It is filed as biochemical. The note with it: for IC50: 0.1 M phosphate buffer pH 7.4, 25 °C, ATCh substrate, read-out: Inhibition of human AChE, IC50 ± SEM.
In test [3] the test system is AChE. The arrangement: method as in doi:10.1016/j.molstruc.2018.05.027, doi:10.3906/kim-1903-74. The conditions noted are these: photoproducts of Figure 1; read-out: AChE inhibition IC50; cited from earlier work.
The subject of test [4] is BChE. It is filed as biochemical. The conditions noted are these: compared to huperzine A.
The subject of test [5] is BChE. More on the design: method as in doi:10.1016/j.molstruc.2018.05.027, doi:10.3906/kim-1903-74. The conditions noted are these: photoproducts of Figure 1; read-out: BChE inhibition IC50; cited from earlier work.
Where [6] appears, read: Table 1, benzobicyclo[3.2.1]octadiene benzylamines, read-out: Inhibition of BChE, IC50 ± SEM.
The mark [7] stands for this setting: Table 3, epoxides, alcohols and ethers.
Setting [8] is: Table 3, epoxides, alcohols and ethers, read-out: Inhibition of human BChE, IC50 ± SEM.
Setting [9] is: Table 2, oximes and oxime ethers, read-out: Inhibition of BChE, IC50 ± SEM.
The mark [10] stands for this setting: Table 4, acylated furo-benzobicyclo[3.2.1]octenes/octadienes.
Where [11] appears, read: Table 4, acylated furo-benzobicyclo[3.2.1]octenes/octadienes, read-out: Inhibition of human BChE, IC50 ± SEM.

Chain of recombinant human AChE (P22303 32-614): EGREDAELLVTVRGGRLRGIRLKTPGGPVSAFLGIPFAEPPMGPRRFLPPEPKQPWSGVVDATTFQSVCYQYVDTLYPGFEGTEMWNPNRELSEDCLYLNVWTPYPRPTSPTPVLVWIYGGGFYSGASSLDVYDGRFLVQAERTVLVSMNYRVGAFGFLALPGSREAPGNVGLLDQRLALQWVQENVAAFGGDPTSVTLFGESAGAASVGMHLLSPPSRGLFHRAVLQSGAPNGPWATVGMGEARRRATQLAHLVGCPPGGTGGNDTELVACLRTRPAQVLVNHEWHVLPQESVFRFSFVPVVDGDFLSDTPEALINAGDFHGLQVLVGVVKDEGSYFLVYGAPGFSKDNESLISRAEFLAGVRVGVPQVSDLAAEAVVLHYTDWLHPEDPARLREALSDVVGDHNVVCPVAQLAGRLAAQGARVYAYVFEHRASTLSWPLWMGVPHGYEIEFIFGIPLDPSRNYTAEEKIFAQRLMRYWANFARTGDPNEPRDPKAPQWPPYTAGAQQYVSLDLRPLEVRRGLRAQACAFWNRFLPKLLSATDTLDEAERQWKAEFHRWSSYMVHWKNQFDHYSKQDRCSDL
Chain of BChE derived from purified human plasma (P06276 29-602): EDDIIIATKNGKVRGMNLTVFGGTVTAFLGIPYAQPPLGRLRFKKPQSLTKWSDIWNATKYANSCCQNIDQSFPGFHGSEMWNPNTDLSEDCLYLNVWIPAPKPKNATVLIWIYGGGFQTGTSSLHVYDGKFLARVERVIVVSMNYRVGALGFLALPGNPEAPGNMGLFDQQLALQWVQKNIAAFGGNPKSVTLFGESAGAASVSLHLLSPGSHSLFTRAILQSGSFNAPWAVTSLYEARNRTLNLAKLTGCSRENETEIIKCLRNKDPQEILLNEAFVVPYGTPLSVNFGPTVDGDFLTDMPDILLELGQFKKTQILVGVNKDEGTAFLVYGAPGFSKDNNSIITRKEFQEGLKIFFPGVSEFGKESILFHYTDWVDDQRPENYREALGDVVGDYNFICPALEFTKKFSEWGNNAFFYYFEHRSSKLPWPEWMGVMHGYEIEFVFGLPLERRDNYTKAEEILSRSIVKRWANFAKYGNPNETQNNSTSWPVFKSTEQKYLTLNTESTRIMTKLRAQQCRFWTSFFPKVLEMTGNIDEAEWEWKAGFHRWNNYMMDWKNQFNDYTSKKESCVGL

A word on the IC50: it is the concentration that gives 50% inhibition. For the compound `Fc1ccccc1CNc1ccc(C2C=CC3CC2c2ccccc23)cc1` (stereo not drawn) [endo-18], the IC50 in test [1] (setting [6]) is greater than 500 µM.

Regarding `C1=C[C@H](c2ccc(NCc3ccco3)cc2)[C@H]2C[C@@H]1c1ccccc12` [endo-7, 4-((5R,6S,9S)-6,9-Dihydro-5H-5,9-methanobenzo[7]annulen-6-yl)-N-(fur-2-ylmethyl)aniline], in test [1] (setting [6]), the IC50 is no less than 500 µM.

`OCCCOC1CC2CC(c3ccccc32)C1c1ccccc1` [endo-45, 3-(((5R,6S,9S)-6-Phenyl-6,7,8,9-tetrahydro-5H-5,9-methanobenzo[7]annulen-7-il)oxy)propan-1-ol]: the IC50 is greater than 100 µM in test [2] (setting [7]) and 90 ± 24 µM in test [1] (setting [8]).

As for `C1=C[C@H](c2ccc(NCc3ccccc3)cc2)[C@H]2C[C@@H]1c1ccccc12` [endo-4, N-Benzyl-4-((5R,6S,9S)-6,9-dihydro-5H-5,9-methanobenzo[7]annulen-6-yl)aniline], the IC50 in test [1] (setting [6]) is 110 ± 77 µM.

Consider `CCCOC1C[C@@H]2C[C@@H](c3ccccc32)[C@H]1c1ccccc1` (stereo partly drawn) [endo-43, (5R,6S,9S)-6-Phenyl-7-propoxy-6,7,8,9-tetrahydro-5H-5,9-methanobenzo[7]annulene], for which the figures for the IC50 in test [2] (setting [7]) and in test [1] (setting [8]) were greater than 100 µM and 17 ± 2 µM, respectively.

With `Cc1cccc(CNc2ccc(C3C=CC4CC3c3ccccc34)cc2)c1` (stereo not drawn) [endo-10], in test [1] (setting [6]), the IC50 was 63 ± 13 µM.

For `COc1ccc(CNc2ccc(C3=CCC4CC3c3ccccc34)cc2)cc1` (stereo not drawn) [Compound 17], the IC50 in test [1] (setting [6]) was 120 ± 64 µM.

`CCCO/N=C\c1cc2c(o1)CC1CC2c2ccccc21` (stereo not drawn) [Compound 27, (Z)-9,10-Dihydro-4H-4,9-methanobenzo[4,5]cyclohepta[1,2-b]furan-2-carbaldehyde O-propyl oxime]: in test [1] (setting [9]), the IC50 was determined as 74 ± 19 µM.

Consider `Clc1cccc(CNc2ccc(C3C=CC4CC3c3ccccc34)cc2)c1` (stereo not drawn) [endo-13], for which the IC50 in test [1] (setting [6]) is greater than 500 µM.

On to `c1ccc([C@H]2C3OC3[C@@H]3C[C@H]2c2ccccc23)cc1` (stereo partly drawn) [endo-38, (2R,7R,8S)-8-Phenyl-1a,7,8,8a-tetrahydro-2H-2,7-methanobenzo[4,5]cyclohepta[1,2-b]-oxirene], for which the “Potency for AChE relative to BChE (fold lower)” value in test [2] (AChE versus BChE) worked out at 3 fold. The values for the half-inhibitory concentration (IC50) in test [2] (setting [7]) and in test [1] (setting [8]) were 62 ± 8 µM and 22 ± 5 µM, respectively.

On to `CCC(=O)C/C=C1\C(O)=CC2CC1c1ccccc12` [Compound 53, (Z)-1-((5R,9R)-7-Hydroxy-5,9-dihydro-6H-5,9-methanobenzo[7]annulen-6-ilydene)-pentan-3-one], for which the figures for the IC50 in test [2] (setting [10]) and in test [1] (setting [11]) were 188 ± 133 µM and 146 ± 30 µM, respectively.

As for `O=C1CC2CC(/C1=C/C/C=N/OCCCCl)c1ccccc12` (stereo not drawn) [Compound 35], the IC50 in test [1] (setting [9]) is 60 ± 11 µM.

Regarding `CC(=O)O/N=C/c1cc2c(o1)CC1CC2c2ccccc21` (stereo not drawn) [Compound 30], in test [1] (setting [9]), the IC50 was determined as 61 ± 36 µM.

Consider `CCCOC1C[C@@H]2C[C@@H](c3ccccc32)[C@H]1c1ccc(OC)cc1` (stereo partly drawn) [endo-47, (5R,6S,9S)-6-(4-Methoxyphenyl)-7-propoxy-6,7,8,9-tetrahydro-5H-5,9-methanobenzo[7]annulene], for which the results for the IC50 in test [2] (setting [7]) and in test [1] (setting [8]) were greater than 100 µM and greater than 200 µM, respectively.

As to `COc1ccc([C@H]2[C@@H]3OC3[C@@H]3C[C@H]2c2ccccc23)cc1` (stereo partly drawn) [endo-39, (2R,7R,8S,8as)-8-(4-Methoxyphenyl)-1a,7,8,8a-tetrahydro-2H-2,7-methanobenzo[4,5]cyclohepta[1,2-b]oxirene], the IC50 is greater than 100 µM in test [2] (setting [7]) and 33 ± 6 µM in test [1] (setting [8]).

In the case of `COc1ccccc1CNc1ccc(C2C=CC3CC2c2ccccc23)cc1` (stereo not drawn) [endo-15], the IC50 in test [1] (setting [6]) is greater than 500 µM.

Take `Nc1ccc(C2=CCC3CC2c2ccccc23)cc1` (stereo not drawn) [Compound 20]: the IC50 in test [1] (setting [6]) was 182 ± 98 µM.

With `CCO/N=C/c1cc2c(o1)CC1CC2c2ccccc21` (stereo not drawn) [Compound 26], the IC50 in test [1] (setting [9]) is 380 ± 250 µM.

As to `CC(C)O/N=C/C/C=C1\C(O)=CC2CC1c1ccccc12` (stereo not drawn) [Compound 31], the IC50 in test [1] (setting [9]) was 90 ± 40 µM.

`CC(C)O/N=C/C/C=C1\C(O)CC2CC1c1ccccc12` (stereo not drawn) [Compound 32]: the IC50 in test [1] (setting [9]) worked out at 31 ± 4 µM.

Take `CC(C)O/N=C/c1cc2c(o1)CC1CC2c2ccccc21` (stereo not drawn) [Compound 28]: in test [1] (setting [9]), the IC50 came out at 24 ± 3 µM.

Consider `COc1ccc(CNc2ccc(C3C=CC4CC3c3ccccc34)cc2)cc1` (stereo not drawn) [endo-17], for which the IC50 in test [1] (setting [6]) was greater than 500 µM.

As to `Cc1ccccc1CNc1ccc(C2C=CC3CC2c2ccccc23)cc1` (stereo not drawn) [endo-9], in test [1] (setting [6]), the IC50 was greater than 500 µM.

With `C=CCO/N=C/c1cc2c(o1)CC1CC2c2ccccc21` (stereo not drawn) [Compound 29], the IC50 in test [1] (setting [9]) amounted to 100 ± 32 µM.

Turning to `Clc1ccc(C2C=CC3CC2c2ccccc23)cc1` (stereo not drawn) [endo-1, 11-(4-Chlorophenyl)tricyclo[6.3.1.0^²,7]dodeca-2,4,6,9-tetraene], the IC50 in test [3] was 17.5 µM.

With `Fc1cccc(CNc2ccc(C3C=CC4CC3c3ccccc34)cc2)c1` (stereo not drawn) [endo-19], the IC50 in test [1] (setting [6]) was greater than 500 µM.

For `Clc1ccc(C2=CCC3CC2c2ccccc23)cc1` (stereo not drawn) [Compound 1], in test [1] (setting [6]), the IC50 stood at 260 ± 120 µM.

In the case of `Fc1ccc(CNc2ccc(C3C=CC4CC3c3ccccc34)cc2)cc1` (stereo not drawn) [endo-20], the IC50 in test [1] (setting [6]) is greater than 500 µM.

In the case of `Cc1ccc(CNc2ccc(C3C=CC4CC3c3ccccc34)cc2)cc1` (stereo not drawn) [endo-11], the IC50 in test [1] (setting [6]) was no less than 500 µM.

`CC(=O)O/N=C/C/C=C1\C(O)CC2CC1c1ccccc12` (stereo not drawn) [Compound 34]: the IC50 in test [1] (setting [9]) was found to be 78 ± 31 µM.

Regarding `CCOC1C[C@@H]2C[C@@H](c3ccccc32)[C@H]1c1ccc(OC)cc1` (stereo partly drawn) [endo-46, (5R,6S,9S)-7-Ethoxy-6-(4-methoxyphenyl)-6,7,8,9-tetrahydro-5H-5,9-methanobenzo-[7]annulene], the figures for the IC50 in test [2] (setting [7]) and in test [1] (setting [8]) were 270 ± 110 µM and greater than 500 µM, respectively.

With `Clc1ccc(CNc2ccc(C3C=CC4CC3c3ccccc34)cc2)cc1` (stereo not drawn) [endo-14], in test [1] (setting [6]), the IC50 is greater than 500 µM.

For the compound `C=CCCO/N=C/C(=O)/C=C1\C=CC2CC1c1ccccc12` (stereo not drawn) [Compound 33], in test [1] (setting [9]), the IC50 was found to be 140 ± 49 µM.

In the case of `C1=CC(c2ccncc2)C2CC1c1ccccc12` (stereo not drawn) [endo-2], in test [4], the “Potency as BChE inhibitor in comparison to huperzine A” value is listed as “about five times more potent”. In test [5], the IC50 is 8.8 µM.

Take `C1=C[C@H](c2ccc(NCc3cccs3)cc2)[C@H]2C[C@@H]1c1ccccc12` [endo-8, 4-((5R,6S,9S)-6,9-dihydro-5H-5,9-methanobenzo[7]annulen-6-yl)-N-(thien-2-ylmethyl)aniline]: in test [1] (setting [6]), the IC50 is greater than 500 µM.

As for `COc1cccc(CNc2ccc(C3C=CC4CC3c3ccccc34)cc2)c1` (stereo not drawn) [endo-16], the IC50 in test [1] (setting [6]) was greater than 500 µM.

As for `Cc1ccccc1CNc1ccc(C2=CCC3CC2c2ccccc23)cc1` (stereo not drawn) [Compound 9], the concentration for half-maximal inhibition (IC50) in test [1] (setting [6]) is 240 ± 210 µM.

Take `C/C(O)=C/C=C1\C(O)CC2CC1c1ccccc12` [Compound 51, (5R,9R,Z)-6-((Z)-3-Hydroxybut-2-ene-1-ilydene)-6,7,8,9-tetrahydro-5H-5,9-methano-benzo[7]annulen-7-ol]: the IC50 in test [2] (setting [10]) was 8.3 ± 4 µM; in test [1] (setting [11]), greater than 300 µM.
